Values quoted from earlier work, collected in patent publication US20020058028A1, “METHOD OF IN SITU DIAGNOSIS BY SPECTROSCOPIC ANALYSIS OF BIOLOGICAL STAIN COMPOSITIONS” (priority 1999, published 2002).
Where two headings read alike, the source gives them in different places.

Tests used:
[1] = test system: Schistosoma mansoni; details: in vitro
[2] = test system: human epidermoid carcinoma (A-253) cells
[3] = test system: HeLa cells; details: for incubation time to saturation of uptake: 10(−5) M
[4] = test system: several other Candida spp.
[5] = test system: influenza or encephalomyelitis viruses; details: human blood plasma; plasma proteins not significantly altered
[6] = test system: microtubule cytoskeleton of cultured cells; details: untreated control cells normal
[7] = test system: Kluyveromyces marxianus
[8] = test system: C. albicans; details: energy dose 1.32 J at 2.04 J/cm2
[9] = test system: Staphylococcus aureus; details: for active concentration against epidemic strains of methicillin-resistant Staphylococcus aureus: compared with vancomycin
[10] = test system: C. albicans; details: conditions employed
[11] = test system: local tumor recurrence in the area of the anastomosis
[12] = test system: Trichoderma Viride; details: outside the body
[13] = test system: solid Ehrlich carcinomas; details: mice; laser 647 nm and 676 nm
[14] = test system: bladder carcinoma cells; details: in vitro; versus Azure C, Methylene violet, Thionin, methylene green, haematoporphyrin
[15] = test system: small adenocarcinomas

For CN(C)c1ccc2cc3ccc(N(C)C)cc3nc2c1 [acridine orange], the “killing upon exposure to light” value [1] is listed as “kills”.
For CCCCN1C(=O)C(=C/C=C/C=C2\Oc3ccccc3N2CCCS(=O)(=O)[O-])C(=O)N(CCCC)C1=S.[Na+] [merocyanine 540], the “white light dose for ninety % reduction of clonogenicity” value (“white light dose for ninety % reduction” for short) [2] is listed as 1.5 J/cm2.
In the case of Cc1cc2nc3ccc(N(C)C)cc3[s+]c2cc1N.[Cl-] [toluidine blue O, 3-amino-7-(dimethylamino)-2-methyl phenothiazin-5-ium chloride], the “concentration at which dark damage was not observed” value [3] is given as 10(−5) M, the “incubation time to saturation of uptake” value ([3]; HeLa cells) is given as 12 h and the “sensitization to killing by HeNe laser light” value [4] is given as “able to sensitize”. The “white light dose for ninety % reduction” value [2] was 1.0 J/cm2, the “virus inactivation by light in presence of dye” value [5] was “inactivated by light” and the “microtubule network after photodynamic treatment” value [6] was “considerable or severe disorganization of the microtubule network”. For the same molecule, the “ATP levels after photodynamic treatment” value [7] was “lowered the ATP levels”, the “enzyme inhibition after treatment with dye and light” value [7] was “inhibition of alcohol dehydrogenase, cytochrome c oxidase, glyceraldehyde-3-phosphate dehydrogenase and hexokinase” and the clonogenicity ([7]; photosensitizer with light) was “induce loss of clonogenicity”.
For aluminum disulphonated phthalocyanine, the “sensitization to killing by GaAs laser light” value [8] is given as “not”.
For CN[C@H](CC(C)C)C(=O)N[C@H]1C(=O)N[C@@H](CC(N)=O)C(=O)N[C@H]2C(=O)N[C@H]3C(=O)N[C@H](C(=O)N[C@H](C(=O)O)c4cc(O)cc(O)c4-c4cc3ccc4O)[C@H](O)c3ccc(c(Cl)c3)Oc3cc2cc(c3O[C@@H]2O[C@H](CO)[C@@H](O)[C@H](O)[C@H]2O[C@H]2C[C@](C)(N)[C@H](O)[C@H](C)O2)Oc2ccc(cc2Cl)[C@H]1O [vancomycin], the “concentration against epidemic strains of methicillin-resistant Staphylococcus aureus” value ([9]; comparator) is listed as no less than 0.5 µM.
In the case of Dihaematoporphyrin ester, the photosensitizer effectiveness [10] is listed as “not an effective photosensitizer”.
For Cc1cc(=[N+](C)C)cc2sc3cc(N(C)C)cc(C)c3nc1-2.[Cl-] [dimethyl methylene blue], the “active concentration against epidemic strains of methicillin-resistant Staphylococcus aureus” value [9] is given as “lower than that of vancomycin” and the “increase in bactericidal activity on illumination, typical” value (from here on “increase in bactericidal activity”) [9] is given as roughly 4 fold.
For rhodamine 123, the “white light dose for ninety % reduction” value [2] is listed as 1.2 J/cm2.
For CCNc1cc2[s+]c3cc(NCC)c(C)cc3nc2cc1C.[Cl-] [new methylene blue], the “active concentration against epidemic strains of methicillin-resistant Staphylococcus aureus” value [9] is given as “lower than that of vancomycin” and the “increase in bactericidal activity” value [9] is given as roughly 4 fold.
In the case of CN(C)c1ccc2nc3ccc(=[N+](C)C)cc-3sc2c1 [methylene blue], the “local tumor growth in treated areas” value ([11]; after PDT-treatment) is given as “no local tumor growth within 6 months”, the “complications during or after PDT” value ([11]; experimental or clinical) is given as “no experimental or clinical complications” and the killing upon illumination [12] is given as “kill”. The “incubation time to saturation of uptake” value ([3]; HeLa cells) was 6 h, the “cell photoinactivation, comparison” value ([3]; HeLa cells) was “higher than that produced by TB” and the “concentration at which dark damage was not observed” value ([3]; HeLa cells, elevated photoinactivation detected at this concentration) was 10(−5) M. The tumor destruction [13] was “significant tumor destruction, including complete tumor destruction”, the “microtubule network after photodynamic treatment” value [6] was “considerable or severe disorganization of the microtubule network” and the “increase in bactericidal activity” value [9] was roughly 4 fold. For the same molecule, the “phototoxicity compared with other dyes” value [14] was “most phototoxic”, the tumor necrosis ([15]; 72 hours after PDT-treatment, proven experimentally) was 4-5 mm and the tumors destroyed ([15]; after the second PDT-treatment) was 6 out of 10. The “carcinomas with inhibited growth” value ([15]; after the treatment) was “Four”, the “killing upon exposure to light” value [1] was “kills” and the “sensitization to killing by GaAs laser light” value [8] was “able to sensitize”.
